Source: patent publication US6780883B2, “Amide inhibitors of microsomal triglyceride transfer protein” (Warner-Lambert Company, priority 1998, dated 2004)

Experiments:
[1] = target: apolipoprotein(a), [apo(a)], apolipoproteinB-100, [apoB-100], coupling reaction that generates Lp(a) (Homo sapiens, UniProt P04114+P08519); assay: LPABC screen: lipoprotein(a) biochemical coupling assay, Lp(a) content by ELISA; settings: recombinant apo(a) 17-kringle (293 cell media) + HepG2 conditioned media, 67 minutes, 37° C., 0.3 to 50 μM compound; read-out: Lp ABC IC50
Procedure: LPABC Screen The lipoprotein(a), [Lp(a)], biochemical coupling assay (LPABC) is used to characterize inhibitors of the apolipoprotein(a), [apo(a)], apolipoproteinB-100, [apoB-100], coupling reaction that generates Lp(a). Conditioned media from 293 cells (ATCC CRL-1573), permanently transfected with an apo(a) 17-kringle cDNA expression construct (pcDNA-AMP, In Vitrogen, Carlsbad, Calif.) using standard molecular biology techniques, was used as a source of recombinant apo(a) is diluted 1:3 with phosphate buffered saline (PBS) and 90 μL is pipetted into each well of a 96-well plate and placed into a 37° C. incubator for 10 minutes. Twenty microliters of a 0.3 to 50 μM solution of a compound of the present invention in PBS is added to the warmed plate. Ninety microliters of HepG2 (ATCC HB-8065) cell conditioned media diluted 1:3 with PBS is added to the apo(a)/compound mixture and mixed by pipetting up and down 5 times. The reaction is incubated for 67 minutes in a 37° C. incubator. A 100 μL aliquot of the reaction is removed and assayed for its Lp(a) content by an enzyme linked immunosorbent assay (ELISA).

[2] = test system: Lp(a) production in HepG2^K17 cells; assay: LPA3 screen: inhibition of Lp(a) production in transfected HepG2 cells, Lp(a) in media by ELISA; format: cell-based; settings: Homo sapiens, 8 hours, 0.3 to 50 μM compound, Lp(a) normalized for total protein, read-out: Lp A3 IC50
Procedure: The LPA3 screen is used to identify compounds that inhibit Lp(a) production. This screen employs permanently transfected HepG2 cells (HepG2^K17) that are generated using an apo(a) 17-kringle cDNA expression construct (pcDNA-AMP, In Vitrogen, Carlsbad, Calif.) in accordance with methods that are well-known in molecular biology.
HepG2^K17 cells are seeded in 96-well plates at a density of 75,000 cells per well in 0.25 mL of Dulbecco's Modified Eagle Media (DMEM) containing 10% fetal bovine serum (FBS). Seeded plates are incubated overnight in a 37° C., 5% CO2/95% 02 incubator. The media is removed, replaced with (1) fresh media, or (2) fresh media plus 0.3 to 50 μM of a compound of the present invention in 20 μL of PBS, and the plates returned to the incubator for 8 hours. After the additional 8 hours of incubation, Lp(a) is assayed in the media by ELISA. Cells are digested with 0.5N NaOH overnight and assayed for total protein. Lp(a) values are normalized for total protein content.

Row | IC50 [1] | Compound | IC50 [2]
1 | > 50 µM | COc1ccc(N(Cc2ccccc2-c2ccccc2)C(=O)c2ccccc2SC)cc1 [Example 126, N-Biphenyl-2-ylmethyl-N-(4-methoxy-phenyl)-2-methylsulfanyl-benzamide] | 16 µM
2 | > 50 µM | COc1ccc(N(Cc2ccccc2-c2ccccc2)C(=O)c2ccccc2SC(C)C)cc1 [Example 127, N-Biphenyl-2-ylmethyl-2-isopropylsulfanyl-N-(4-methoxy-phenyl)-benzamide] | 49.4 µM
3 | > 50 µM | CCCSc1ccccc1C(=O)N(Cc1ccccc1-c1ccccc1)c1cccc(OC)c1 [Example 128, N-Biphenyl-2-ylmethyl-N-(3-methoxy-phenyl)-2-propylsulfanyl-benzamide] | 46.8 µM
4 | > 50 µM | COc1cccc(N(Cc2ccccc2-c2ccccc2)C(=O)c2ccccc2SC)c1 [Example 129, N-Biphenyl-2-ylmethyl-N-(3-methoxy-phenyl)-2-methylsulfanyl-benzamide] | 6.5 µM
5 | > 50 µM | COc1cccc(N(Cc2ccccc2-c2ccccc2)C(=O)c2ccccc2SC(C)C)c1 [Example 130, N-Biphenyl-2-ylmethyl-2-isopropylsulfanyl-N-(3-methoxy-phenyl)-benzamide] | 31.4 µM
6 | > 50 µM | COc1cccc(N(Cc2ccccc2-c2ccccc2)C(=O)c2ccccc2SCc2ccccc2)c1 [Example 131, 2-Benzylsulfanyl-N-biphenyl-2-ylmethyl-N-(3-methoxy-phenyl)-benzamide] | 40.1 µM
7 | > 50 µM | O=C(c1ccccc1SCc1ccccc1)N(Cc1ccccc1-c1ccccc1)c1ccc(Cl)cc1 [Example 132, 2-Benzylsulfanyl-N-biphenyl-2-ylmethyl-N-(4-chloro-phenyl)-benzamide] | > 74 µM
8 | > 50 µM | CCCSc1ccccc1C(=O)N(Cc1ccccc1-c1ccccc1)c1ccc(OC)c(OC)c1 [Example 133, N-Biphenyl-2-ylmethyl-N-(3,4-dimethoxy-phenyl)-2-propylsulfanyl-benzamide] | 16.7 µM
9 | > 50 µM | COc1ccc(N(Cc2ccccc2-c2ccccc2)C(=O)c2ccccc2SC)cc1OC [Example 134, N-Biphenyl-2-ylmethyl-N-(3,4-dimethoxy-phenyl)-2-methylsulfanyl-benzamide] | 12.9 µM
10 | > 50 µM | COc1ccc(N(Cc2ccccc2-c2ccccc2)C(=O)c2ccccc2SC(C)C)cc1OC [Example 135, N-Biphenyl-2-ylmethyl-N-(3,4-dimethoxy-phenyl)-2-isopropylsulfanyl-benzamide] | 21.9 µM

Second part, the compound before the results:

Row | Compound | IC50 [1] | IC50 [2]
11 | COc1ccc(N(Cc2ccccc2-c2ccccc2)C(=O)c2ccc(OC)cc2OC)cc1 [Example 106, N-Biphenyl-2-ylmethyl-2,4-dimethoxy-N-(4-methoxy-phenyl)-benzamide] | > 50 µM | 9.3 µM
12 | COc1ccc(N(Cc2ccccc2-c2ccccc2)C(=O)c2ccccc2OCc2ccccc2)cc1 [Example 107, 2-Benzyloxy-N-biphenyl-2-ylmethyl-N-(4-methoxy-phenyl)-benzamide] | > 50 µM | 15.4 µM
13 | COc1ccc(N(Cc2ccccc2-c2ccccc2)C(=O)c2ccccc2Br)cc1 [Example 108, N-Biphenyl-2-ylmethyl-2-bromo-N-(4-methoxy-phenyl)-benzamide] | > 50 µM | 37.7 µM
14 | COc1ccc(N(Cc2ccccc2-c2ccccc2)C(=O)c2cccc3c2OCO3)cn1 [Example 109, Benzo[1,3]dioxole-4-carboxylic acid biphenyl-2-ylmethyl-(6-methoxy-pyridin-3-yl)-amide] | > 50 µM | 11.8 µM
15 | CCOc1ccccc1C(=O)N(Cc1ccccc1-c1ccccc1)c1ccccn1 [Example 110, N-Biphenyl-2-ylmethyl-2-ethoxy-N-pyridin-2-yl-benzamide] | > 50 µM | 14 µM
16 | O=C(c1ccccc1Br)N(Cc1ccccc1-c1ccccc1)c1ccccn1 [Example 111, N-Biphenyl-2-ylmethyl-2-bromo-N-pyridin-2-yl-benzamide] | > 50 µM | 18.7 µM
17 | O=C(c1ccccc1[N+](=O)[O-])N(Cc1ccccc1-c1ccccc1)c1ccccn1 [Example 112, N-Biphenyl-2-ylmethyl-2-nitro-N-pyridin-2-yl-benzamide] | > 50 µM | 23.7 µM
18 | O=C(c1ccccc1OCc1ccccc1)N(Cc1ccccc1-c1ccccc1)c1ccccn1 [Example 113, 2-Benzyloxy-N-biphenyl-2-ylmethyl-N-pyridin-2-yl-benzamide] | > 50 µM | 25.1 µM
19 | O=C(c1ccccc1Br)N(Cc1ccccc1-c1ccccc1)c1cccnc1 [Example 114, N-Biphenyl-2-ylmethyl-2-bromo-N-pyridin-3-yl-benzamide] | > 50 µM | 26.7 µM
20 | O=C(c1sc2ccccc2c1Cl)N(Cc1ccccc1-c1ccccc1)c1cccnc1 [Example 115, 3-Chloro-benzo[b]thiophene-2-carboxylic acid biphenyl-2-ylmethyl-pyridin-3-yl-amide] | > 50 µM | 23.5 µM
21 | O=C(c1cc2ccccc2s1)N(Cc1ccccc1-c1ccccc1)c1cccnc1 [Example 116, Benzo[b]thiophene-2-carboxylic acid biphenyl-2-ylmethyl-pyridin-3-yl-amide] | > 50 µM | 9.3 µM
22 | O=C(c1ccccc1[N+](=O)[O-])N(Cc1ccccc1-c1ccccc1)c1cccnc1 [Example 117, N-Biphenyl-2-ylmethyl-2-nitro-N-pyridin-3-yl-benzamide] | > 50 µM | 18 µM
23 | CCOc1ccccc1C(=O)N(Cc1ccccc1-c1ccccc1)c1ccncc1 [Example 118, N-Biphenyl-2-ylmethyl-2-ethoxy-N-pyridin-4-yl-benzamide] | > 50 µM | 5.8 µM
24 | COc1ccccc1C(=O)N(Cc1ccccc1-c1ccccc1)c1ccncc1 [Example 119, N-Biphenyl-2-ylmethyl-2-methoxy-N-pyridin-4-yl-benzamide] | > 50 µM | 4.8 µM
25 | O=C(c1cccc2c1OCO2)N(Cc1ccccc1-c1ccccc1)c1ccncc1 [Example 120, Benzo[1,3]dioxole-4-carboxylic acid biphenyl-2-ylmethyl-pyridin-4-yl-amide] | > 50 µM | 18.1 µM
26 | O=C(c1ccccc1Br)N(Cc1ccccc1-c1ccccc1)c1ccncc1 [Example 121, N-Biphenyl-2-ylmethyl-2-bromo-N-pyridin-4-yl-benzamide] | > 50 µM | 3.8 µM
27 | O=C(c1ccccc1[N+](=O)[O-])N(Cc1ccccc1-c1ccccc1)c1ccncc1 [Example 122, N-Biphenyl-2-ylmethyl-2-nitro-N-pyridin-4-yl-benzamide] | > 50 µM | 22.4 µM
28 | O=C(c1ccccc1OCc1ccccc1)N(Cc1ccccc1-c1ccccc1)c1ccncc1 [Example 123, 2-Benzyloxy-N-biphenyl-2-ylmethyl-N-pyridin-4-yl-benzamide] | > 50 µM | 2.3 µM
29 | CCOc1ccc(C(=O)N(Cc2ccccc2-c2ccccc2)c2ccncc2)cc1 [Example 124, N-Biphenyl-2-ylmethyl-4-ethoxy-N-pyridin-4-yl-benzamide] | > 50 µM | 3.3 µM
30 | O=C(c1cc2ccccc2s1)N(Cc1cccnc1)Cc1ccccc1-c1ccccc1 [Example 125, Benzo[b]thiophene-2-carboxylic acid biphenyl-2-ylmethyl-pyridin-3-ylmethyl-amide] | > 50 µM | 23.9 µM
